Assay results as given in patent EP4789715A2, “METHODS FOR TREATING NEOINTIMAL HYPERPLASIA USING F11R/JAM-A INHIBITORS” (The Research Foundation for The State University of New York, priority 2019, dated 2026).
Non-standard residues stand in square brackets, D forms with d. Residues, ends and D or L forms follow the SMILES beside them.

Test system: uremic C57BL/6 mice
Assay: carotid artery ligation (mid-focal LCA stenosis) model of neointimal hyperplasia in 5/6-nephrectomized uremic mice
Assay type: in vivo
Settings: for mean Intima Index (ratio of intima area/intima + media area): intraperitoneal injections for 21 days, n=7
Protocol: Carotid artery ligation was performed on 14 uremic C57BL/6 mice that underwent 5/6 nephrectomy. One week after nephrectomy, partial ligation of the left carotid artery (LCA) was performed on each mouse. Focal LCA stenosis was created by placing 9-0 nylon suture at 1mm proximal to the carotid bifurcation (mid-focal stenosis) around the artery using a 35-gauge blunt needle (World precision Instruments, Inc., Sarasota, FL). Then the needle mandrel was gently removed to restore blood flow.
Mice were fed a regular mouse diet and divided into 2 groups of 7 mice each; the experimental group received Peptide 4D while the Control group received saline injections by intraperitoneal route for 21 days, as this was the time shown in earlier studies to correlate with development of neointimal hyperplasia following partial ligation of the carotid artery.
The mice were then euthanized on day 21 and both LCA and right carotid artery (RCA) were excised for analysis. Specimens were embedded in paraffin. Serial sections (6 µm thick) were collected at 200-µm intervals of the LCA from mid-focal stenosis as well as from the RCA serving as lesion control. Data were analyzed qualitatively and quantitatively using Image J software. The two groups were compared for differences in mean Intima Area and Intima Index, defined as the ratio of intima area divided by intima plus media area.

CC(C)[C@H](NC(=O)[C@H](CO)NC(=O)[C@H](N)CCCCN)C(=O)N[C@H](C(=O)N[C@H](CCCNC(=N)N)C(=O)N[C@@H](CCC(=O)O)C(=O)N[C@@H](CC(=O)O)C(=O)N[C@H](C(=O)NCC(=O)N[C@H](C(=O)N[C@@H](Cc1ccc(O)cc1)C(=O)N[C@H](C(=O)N[C@@H](CS)C(N)=O)[C@@H](C)O)[C@@H](C)O)[C@@H](C)O)[C@@H](C)O [Peptide 4D, NH2-(dK)-SVT-(dR)-EDTGTYTC-CONH2] (H-[dK]SVT[dR]EDTGTYTC-NH2)
experimental mice LCA with severe neointimal hyperplasia (7 treated mice, day 21, all LCA in control mice developed severe neointimal hyperplasia, two with complete luminal occlusion): only one had severe neointimal hyperplasia | mean Intima Index (ratio of intima area/intima + media area) (average from 10 LCA locations, FIG. 6, control (0.27 + 0.13), p = 0.0079): significantly less mean intima/intima + media ratio | mean Intima Index (ratio of intima area/intima + media area) (average from 10 LCA locations, FIG. 6, control (0.27 + 0.13), p = 0.0079, listed as peptide 4D): 0.089 + 0.081 | arterial lumen (H&E-stained cross sections of the carotid artery) (different distances from the point of ligation, compared to occluded lumens in the controls, FIGs. 1A-1B): arterial lumen is preserved | mean Intima Index (ratio of intima area/intima + media area) (from 1 LCA location with biggest focal stenosis, FIG. 7, control (0.47 + 0.15), p = 0.039): 0.31 + 0.14 | intima area relative to distance from the ligation point (mid focal stenosis morphometry of LCA, 10 locations, treated versus control untreated uremic mice, FIG. 4): significantly smaller | neointimal hyperplasia (uremic C57BL/6 mice, carotid ligation model, 21 days of administration, overall conclusion in words): significantly inhibits neointimal hyperplasia
